Tests used:
[1] = test system: KYSE-520 cell (human esophageal squamous cell carcinoma cell); test: Inhibition of the proliferation activity of KYSE-520 cell (CellTiter-Glo); format: cell-based; settings: 120 h, KYSE-520 cell proliferation, 5 days
Protocol: Test Example 2: Experiment on the Inhibition of the Proliferation Activity of KYSE-520 Cell (Human Esophageal Squamous Cell Carcinoma Cell)
cell: KYSE-520 (JCRB Cell Bank);
(§1) kit: CellTiter-Glo® Luminescent Cell Viability Assay Kit (Promega).
(§2) inoculation amount of cell: 1500 cells/well;
incubation conditions for compound: 37° C., 5% CO2;
(§3) incubation duration: 5 days;
(§4) detecting temperature: room temperature;
(§5) chemiluminescence detection using the BMG PHERAstar FS reader.
(§6) Cells were cultured in a medium containing 10% fetal bovine serum under the culture conditions of 37° C. and 5% CO2. An appropriate amount of cells were plated into a 96-well plate and cultured overnight in an incubator to allow the cells to adhere to the wall. The following day, the medium was removed and a complete medium containing a pre-diluted compound was added and incubated at 37° C. for 5 days. On the fifth day, the detection reagent CellTiter-Glo® was added into each well. Chemiluminescence was adopted to detect the relative luminescence units (RLUs) of the wells.
(§7) The result of a well containing cell-free medium, treated with CellTiter-Glo®, was obtained as the blank value. Cell viability (%)=(sample RLU−blank RLU)/(vehicle RLU−blank RLU)×100%, and maximum inhibition rate (%)=100%−cell viabilitymax. conc. (%). The half maximal inhibitory concentration (IC50) of the compound was calculated by fitting the curve according to the four-parameter logistic model.

[2] = target: T1, recombinant full-length human PTPN11 (SHP2) (Homo sapiens, UniProt Q06124); test: Inhibition of in vitro enzyme activity of SHP2 (DiFMUP fluorescence endpoint assay); format: biochemical; settings: SHP2 0.5 nM, DiFMUP 200 μM, IRS-1 0.5 μM; 60 min incubation
T1 construct: recombinant full-length human PTPN11 (SHP2), active (SignalChem); purchased SignalChem
T1 sequence (Q06124 1-593): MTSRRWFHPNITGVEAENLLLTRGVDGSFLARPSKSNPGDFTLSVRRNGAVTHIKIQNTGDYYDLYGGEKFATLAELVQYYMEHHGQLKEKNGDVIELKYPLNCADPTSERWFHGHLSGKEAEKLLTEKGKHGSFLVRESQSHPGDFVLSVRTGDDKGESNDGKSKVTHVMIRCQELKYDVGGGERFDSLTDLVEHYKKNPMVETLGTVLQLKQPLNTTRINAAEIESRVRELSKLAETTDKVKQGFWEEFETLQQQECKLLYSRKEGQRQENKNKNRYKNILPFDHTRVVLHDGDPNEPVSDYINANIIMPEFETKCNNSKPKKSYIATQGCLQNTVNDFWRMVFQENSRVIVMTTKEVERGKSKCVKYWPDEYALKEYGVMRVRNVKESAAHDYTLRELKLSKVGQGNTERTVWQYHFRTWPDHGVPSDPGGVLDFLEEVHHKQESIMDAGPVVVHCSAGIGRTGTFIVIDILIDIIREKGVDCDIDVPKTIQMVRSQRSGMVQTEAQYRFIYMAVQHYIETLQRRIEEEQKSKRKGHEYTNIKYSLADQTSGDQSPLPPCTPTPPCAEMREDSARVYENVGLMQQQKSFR
Protocol: Test Example 1: Experiment on the Inhibition of In Vitro Enzyme Activity of SHP2 (Protein Phosphatase)
phosphatase: recombinant full-length human PTPN11 (SHP2), active (SignalChem);
substrate: 6,8-difluoro-4-methylumbelliferyl phosphate (DiFMUP) (Invitrogen);
activating peptide: IRS1_pY1172(dPEG8)pY1222 (IRS1) (BPS Bioscience);
terminator: bpv(phen) (bpv) (Abcam).
SHP2 concentration: 0.5 nM;
DiFMUP concentration: 200 μM;
IRS-1 concentration: 0.5 μM;
bpv concentration: 160 μM;
buffer systems: 60 mM Hepes pH 7.2; 75 mM NaCl; 75 mM KCl; 0.05% surfactant P20; 1 mM EDTA; 5 mM DTT;
incubation duration of compound and enzyme: 60 minutes;
reaction time of enzyme and substrate: 30 minutes;
parameters for microplate reader: BMG PHERAstar fluorescence microplate reader at an excitation wavelength of 340 nm and an emission wavelength of 450 nm.
Test group: A mixture of the test compound and the phosphatase SHP2 together with the activating peptide IRS-1 were incubated in the buffer system at room temperature for 60 minutes. The substrate DiFMUP was added to initiate the reaction and incubated at room temperature for 30 minutes. Thereafter, bpv was added to terminate the reaction. The reaction plate was placed in the microplate reader, and the fluorescence intensities of the wells in the plate were measured using an endpoint assay.
Negative group: The experimental method for the negative group was the same as that for the test group, except that the test compound was substituted with 0.05% aqueous solution of DMSO.
Blank group: The experimental method for the blank group was the same as that for the test group, except that the test compound was substituted with 0.05% aqueous solution of DMSO and that SHP2 was not added.
The relative inhibitory activity was calculated for the test group at each concentration based on the following equation: inhibition rate (%)=100%−(the fluorescence intensity of the test group−the fluorescence intensity of the blank group)/(the fluorescence intensity of the negative group−the fluorescence intensity of the blank group)×100%. The half maximal inhibitory concentration (IC50) of the compound was calculated by fitting the curve according to the four-parameter logistic model.

[3] = test system: NCI-H358 cell (human non-small cell lung cancer cell); test: Inhibition of the proliferation activity of NCI-H358 cell (CellTiter-Glo); format: cell-based; settings: 120 h, 5 days
Protocol: Test Example 4: Experiment on the Inhibition of the Proliferation Activity of NCI-H358 Cell (Human Non-Small Cell Lung Cancer Cell)
cell: NCI-H358 (Nanjing CoBioer);
as §1, §2
incubation conditions for compounds: 37° C., 5% CO2;
as §3, §4, §5, §6, §7

Row | Compound | IC50 [1] [nM] | IC50 [2] [nM] | IC50 [3] [nM]
1 | CC(C)(O)C1CN(c2nccc(Sc3cnc(N4CCC5(CC4)CCC4(CC4)[C@H]5N)c(CO)n3)c2Cl)C1 [Example 49, 2-(1-(4-(5-(4-amino-8-azadispiro[2.1.5.2]dodecan-8-yl)-6-(hydroxymethyl)pyrazin-2-ylthio)-3-chloropyridin-2-yl)azetidin-3-yl)propan-2-ol] | 270 | 2.3 | 
2 | C[C@@H]1OCC2(CCN(c3ncc(Sc4ccnc(N5CCC(CC#N)C5)c4Cl)nc3CO)CC2)[C@@H]1N (stereo partly drawn) [Example 10, 2-(1-(4-(5-((3S,4S)-4-amino-3-methyl-2-oxa-8-azaspiro[4.5]decan-8-yl)-6-(hydroxymethyl)pyrazin-2-ylthio)-3-chloropyridin-2-yl)pyrrolidin-3-yl)acetonitrile] | 40 | 1.22 | 
3 | Cc1nc(N2CCC3(CC2)CO[C@@H](C)[C@H]3N)c(CO)nc1Sc1ccnc(N2CC(C(C)(C)O)C2)c1Cl [Example 32, 2-(1-(4-(5-((3S,4S)-4-amino-3-methyl-2-oxa-8-azaspiro[4.5]decan-8-yl)-6-(hydroxymethyl)-3-methylpyrazin-2-ylthio)-3-chloropyridin-2-yl)azetidin-3-yl)propan-2-ol] |  | 3.7 | 
4 | C[C@@H]1OCC2(CCN(c3ncc(Sc4ccc(N5CC(C(C)(C)O)C5)nc4Cl)nc3CO)CC2)[C@@H]1N [Example 11, 2-(1-(5-(5-((3S,4S)-4-amino-3-methyl-2-oxa-8-azaspiro[4.5]decan-8-yl)-6-(hydroxymethyl)pyrazin-2-ylthio)-6-chloropyridin-2-yl)azetidin-3-yl)propan-2-ol] |  | 9.3 | 
5 | CC(N)C1(C)CCN(c2ncc(Sc3ccnc(N4CCCC4CO)c3Cl)nc2CO)CC1 (stereo not drawn) [Example 3] | 1140 | 3.48 | 
6 | CC(C)(O)C1CN(c2nccc(Sc3cnc(N4CCC5(CC4)Oc4ncccc4[C@H]5N)c(CO)n3)c2Cl)C1 [Example 44, (R)-2-(1-(4-(5-(3-amino-3H-spiro[furo[2,3-b]pyridine-2,4′-piperidin]-1′-yl)-6-(hydroxymethyl)pyrazin-2-ylthio)-3-chloropyridin-2-yl)azetidin-3-yl)propan-2-ol] | 50 | 2.49 | 50
7 | CC(C)(O)C1CN(c2nccc(Sc3cnc(N4CCC5(CC4)Cc4ncccc4[C@H]5N)cn3)c2Cl)C1 [Example 45, (S)-2-(1-(4-(5-(5-amino-5,7-dihydrospiro[cyclopenta[b]pyridine-6,4′-piperidin]-1′-yl)pyrazin-2-ylthio)-3-chloropyridin-2-yl)azetidin-3-yl)propan-2-ol] | 210 | 4.1 | 
8 | C[C@@H]1OCC2(CCN(c3ncc(Sc4ccnc(N5CC(CF)C5)c4Cl)nc3CO)CC2)[C@@H]1N [Example 16, (3-((3S,4S)-4-amino-3-methyl-2-oxa-8-azaspiro[4.5]decan-8-yl)-6-(3-chloro-2-(3-(fluoromethyl)azetidin-1-yl)pyridin-4-ylthio)pyrazin-2-yl)methanol] | 40 | 1 | 
9 | C[C@@H]1OCC2(CCN(c3ncc(Sc4ccnc(N5CCC(CO)C5)c4Cl)nc3CO)CC2)[C@@H]1N (stereo partly drawn) [Example 8, (3-((3S,4S)-4-amino-3-methyl-2-oxa-8-azaspiro[4.5]decan-8-yl)-6-(3-chloro-2-(3-(hydroxymethyl)pyrrolidin-1-yl)pyridin-4-ylthio)pyrazin-2-yl)methanol] | 30 | 0.88 | 
10 | COCC1(C)CN(c2nccc(Sc3cnc(N4CCC5(CC4)CO[C@@H](C)[C@H]5N)c(CO)n3)c2Cl)C1 [Example 33, (3-((3S,4S)-4-amino-3-methyl-2-oxa-8-azaspiro[4.5]decan-8-yl)-6-(3-chloro-2-(3-(methoxymethyl)-3-methylazetidin-1-yl)pyridin-4-ylthio)pyrazin-2-yl)methanol] | 90 | 4.1 | 
11 | CC(C)(O)C1CN(c2nccc(Sc3cnc(N4CCC5(CC4)Oc4ccc(F)cc4[C@H]5N)cn3)c2Cl)C1 [Example 41, (R)-2-(1-(4-(5-(3-amino-5-fluoro-3H-spiro[benzofuran-2,4′-piperidin]-1′-yl)pyrazin-2-ylthio)-3-chloropyridin-2-yl)azetidin-3-yl)propan-2-ol] |  | 8.4 | 
12 | C[C@@H]1OCC2(CCN(c3cnc(Sc4ccnc(N5CCCC5CO)c4Cl)c(N)n3)CC2)[C@@H]1N (stereo partly drawn) [Example 37, (1-(4-(3-amino-5-((3S,4S)-4-amino-3-methyl-2-oxa-8-azaspiro[4.5]decan-8-yl)pyrazin-2-ylthio)-3-chloropyridin-2-yl)pyrrolidin-2-yl)methanol] |  | 2.4 | 
13 | Cc1nc(N2CCC3(CC2)Cc2ncccc2[C@H]3N)c(CO)nc1Sc1ccnc(N2CC(C(C)(C)O)C2)c1Cl [Example 50, (S)-2-(1-(4-(5-(5-amino-5,7-dihydrospiro[cyclopenta[b]pyridine-6,4′-piperidin]-1′-yl)-6-(hydroxymethyl)-3-methylpyrazin-2-ylthio)-3-chloropyridin-2-yl)azetidin-3-yl)propan-2-ol] |  | 4.84 | 
14 | CC(C)(O)C1CN(c2nccc(Sc3cnc(N4CCC5(CC4)Oc4ccc(F)cc4[C@H]5N)c(CO)n3)c2Cl)C1 [Example 20, (R)-2-(1-(4-(5-(3-amino-5-fluoro-3H-spiro[benzofuran-2,4′-piperidin]-1′-yl)-6-(hydroxymethyl)pyrazin-2-ylthio)-3-chloropyridin-2-yl)azetidin-3-yl)propan-2-ol] |  | 6.9 | 
15 | C[C@@H]1OCC2(CCN(c3cnc(Sc4ccnc(N5CC(CS(C)(=O)=O)C5)c4Cl)c(N)n3)CC2)[C@@H]1N [Example 38, (3S,4S)-8-(6-amino-5-(3-chloro-2-(3-(methylsulfonylmethyl)azetidin-1-yl)pyridin-4-ylthio)pyrazin-2-yl)-3-methyl-2-oxa-8-azaspiro[4.5]decan-4-amine] |  | 5.3 | 

Source: patent US20230212180A1, “SUBSTITUTED PYRAZINE COMPOUND, PHARMACEUTICAL COMPOSITION COMPRISING SAME, AND USE THEREOF” (Sichuan Kelun-Biotech Biopharmaceutical Co., Ltd., priority 2020, published 2023)
